Read-outs that look alike come from different tables or passages of the source. Marks after values point to notes of the source that are not given here.
Experiments:
PLE = assay: Esterase cleavage of prodrugs in the presence of PLE; type: in vitro ADME; conditions: 37° C.; for Percent cleavage at 72 h: pH 7.3, PLE
[1] = test system: allergen-induced airway inflammation; assay: Ovalbumin/Aspergillus mouse asthma model (BALF leukocytes); conditions: 20 μmol/kg; for eosinophil counts in the BALF: i.p. prior to allergen challenge, two days post-challenge
hP2Y14R = target: T1, hP2Y14R (Homo sapiens, UniProt Q15391); assay: Inhibition of fluorescent antagonist binding in whole hP2Y14R-expressing CHO cells (flow cytometry)
T1 construct: expressed in transfected cells; host or cells: CHO cells
T1 sequence (Q15391 1-338): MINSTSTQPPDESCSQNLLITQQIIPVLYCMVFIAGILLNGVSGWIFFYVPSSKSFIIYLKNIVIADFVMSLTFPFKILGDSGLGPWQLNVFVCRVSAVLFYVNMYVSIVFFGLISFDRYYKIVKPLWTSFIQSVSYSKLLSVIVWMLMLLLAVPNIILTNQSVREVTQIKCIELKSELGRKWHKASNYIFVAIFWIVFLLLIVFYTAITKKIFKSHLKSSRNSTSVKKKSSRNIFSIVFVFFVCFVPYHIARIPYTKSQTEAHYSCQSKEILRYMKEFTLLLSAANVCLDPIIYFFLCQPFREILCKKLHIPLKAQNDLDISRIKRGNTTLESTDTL

[2] = test system: CCI-induced mechano-allodynia; assay: Chronic constriction injury (CCI) mouse model of neuropathic pain; conditions: 10 μmol/kg, i.p.; for reversal of mechano-allodynia (figure legend): day 7 post-injury
mP2Y14R = target: T2, mP2Y14R (Mus musculus, UniProt Q9ESG6); assay: cell-based; conditions: read-out: mP2Y14R, IC50; Table 6; whole mP2Y14R-HEK cells, 200 nM of 3, mean ± SEM, n = 3-6
T2 sequence (Q9ESG6 1-338): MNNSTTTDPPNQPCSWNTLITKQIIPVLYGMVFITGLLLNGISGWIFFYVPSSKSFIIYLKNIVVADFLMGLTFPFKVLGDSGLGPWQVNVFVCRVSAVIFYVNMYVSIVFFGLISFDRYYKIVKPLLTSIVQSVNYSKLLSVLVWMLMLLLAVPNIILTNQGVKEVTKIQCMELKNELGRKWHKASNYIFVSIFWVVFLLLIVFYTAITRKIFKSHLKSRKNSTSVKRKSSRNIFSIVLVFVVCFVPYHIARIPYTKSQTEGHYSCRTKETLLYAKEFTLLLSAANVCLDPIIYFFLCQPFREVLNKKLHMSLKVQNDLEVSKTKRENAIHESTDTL
Description: Desirably, receptor affinity is maintained across species, facilitating performance in in vivo preclinical testing in small animals, with the mouse being the most commonly used species in initial evaluation.

CYP1A2 = target: T3, CYP1A2 (Homo sapiens, UniProt P05177); assay: CYP1A2 inhibition; type: in vitro ADME; conditions: Table 7
T3 sequence (P05177 1-516): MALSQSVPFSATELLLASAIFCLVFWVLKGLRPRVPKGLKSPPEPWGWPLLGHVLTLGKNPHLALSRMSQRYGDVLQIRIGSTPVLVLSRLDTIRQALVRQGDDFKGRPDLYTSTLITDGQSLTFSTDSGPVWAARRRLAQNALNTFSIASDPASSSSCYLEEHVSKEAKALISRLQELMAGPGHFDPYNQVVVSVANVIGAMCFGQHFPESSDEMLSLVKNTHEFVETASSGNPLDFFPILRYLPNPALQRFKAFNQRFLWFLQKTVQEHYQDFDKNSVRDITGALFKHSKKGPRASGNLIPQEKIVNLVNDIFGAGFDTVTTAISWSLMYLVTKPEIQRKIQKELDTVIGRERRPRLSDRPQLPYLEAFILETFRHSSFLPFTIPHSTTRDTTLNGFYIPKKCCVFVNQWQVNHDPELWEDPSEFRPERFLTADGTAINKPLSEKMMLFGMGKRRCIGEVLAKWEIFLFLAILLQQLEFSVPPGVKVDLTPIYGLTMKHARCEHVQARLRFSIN

CYP2C19 = CYP2C19 (Homo sapiens, UniProt P33261); assay: CYP2C19 inhibition; type: in vitro ADME; conditions: Table 7
CYP2D6 = CYP2D6 (Homo sapiens, UniProt P10635); assay: CYP2D6 inhibition; type: in vitro ADME; conditions: Table 7
CYP3A4 = CYP3A4 (Homo sapiens, UniProt P08684); assay: CYP3A4 inhibition; type: in vitro ADME; conditions: Table 7
[3] = Microsomal stability, rat; type: in vitro ADME; conditions: Table 7
[4] = Microsomal stability, mouse; type: in vitro ADME; conditions: Table 7
hERG = hERG (Homo sapiens, UniProt Q12809); assay: hERG inhibition, fluorescent method; type: binding; conditions: Table 7
[5] = In vivo half-life by administration mode (Table 7)
[6] = Plasma protein binding, mouse; type: in vitro ADME
[7] = Plasma protein binding, rat; type: in vitro ADME
[8] = Plasma protein binding, human; type: in vitro ADME
CYP2C9 = CYP2C9 (Homo sapiens, UniProt P11712); assay: CYP2C9 inhibition
Plasma stability, rat = conditions: Table 7
Plasma stability, mouse = conditions: Table 7
[9] = Microsomal stability, human
[10] = Aqueous solubility, pION method
[11] = HPLC-based lipophilicity (Log D7.4); conditions: pH 7.4
[12] = Stability in simulated gastric fluid; conditions: Table 7
[13] = Stability in simulated intestinal fluid; conditions: Table 7
hERG ion channel = hERG ion channel (Homo sapiens, UniProt Q12809); assay: hERG ion channel block, patch clamp assay
[14] = Table 6, fluorescent hP2Y14R antagonist (3), read-out: hP2Y14R, IC50
[15] = first value of the cell (mode not given; by the column of 4: i.p.)
[16] = second value of the cell (mode not given; by the column of 4: i.v., 0.5 mg/kg)

CYP2C9, sequence (P11712 whole entry): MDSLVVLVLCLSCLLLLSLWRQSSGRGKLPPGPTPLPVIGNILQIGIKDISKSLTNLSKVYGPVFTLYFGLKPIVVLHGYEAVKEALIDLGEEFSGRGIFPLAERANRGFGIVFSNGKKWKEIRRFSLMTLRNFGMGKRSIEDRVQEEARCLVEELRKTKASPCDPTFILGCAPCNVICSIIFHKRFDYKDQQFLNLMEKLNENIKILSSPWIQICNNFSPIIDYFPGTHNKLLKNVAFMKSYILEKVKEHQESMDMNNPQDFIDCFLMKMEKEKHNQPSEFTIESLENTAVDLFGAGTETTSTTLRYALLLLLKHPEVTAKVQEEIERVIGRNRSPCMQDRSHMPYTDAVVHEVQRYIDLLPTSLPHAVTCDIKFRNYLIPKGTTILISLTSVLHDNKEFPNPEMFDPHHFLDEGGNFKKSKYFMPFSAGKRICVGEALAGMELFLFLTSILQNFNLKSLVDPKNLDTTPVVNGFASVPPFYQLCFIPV
CYP2D6, sequence (P10635 whole entry): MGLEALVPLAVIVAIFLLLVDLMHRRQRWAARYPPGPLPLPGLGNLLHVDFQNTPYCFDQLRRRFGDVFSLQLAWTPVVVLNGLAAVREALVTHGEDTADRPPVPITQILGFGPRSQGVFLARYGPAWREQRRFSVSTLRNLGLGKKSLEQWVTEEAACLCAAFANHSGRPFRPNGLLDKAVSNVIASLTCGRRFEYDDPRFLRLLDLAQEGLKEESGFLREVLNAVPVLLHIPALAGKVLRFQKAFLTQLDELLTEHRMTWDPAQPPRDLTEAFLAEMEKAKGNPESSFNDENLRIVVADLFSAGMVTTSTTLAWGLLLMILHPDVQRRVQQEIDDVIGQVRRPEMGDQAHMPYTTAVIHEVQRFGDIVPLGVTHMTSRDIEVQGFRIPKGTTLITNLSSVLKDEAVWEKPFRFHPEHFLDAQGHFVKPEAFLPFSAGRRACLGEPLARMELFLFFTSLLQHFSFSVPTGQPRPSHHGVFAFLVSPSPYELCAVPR
hERG, sequence (Q12809 whole entry): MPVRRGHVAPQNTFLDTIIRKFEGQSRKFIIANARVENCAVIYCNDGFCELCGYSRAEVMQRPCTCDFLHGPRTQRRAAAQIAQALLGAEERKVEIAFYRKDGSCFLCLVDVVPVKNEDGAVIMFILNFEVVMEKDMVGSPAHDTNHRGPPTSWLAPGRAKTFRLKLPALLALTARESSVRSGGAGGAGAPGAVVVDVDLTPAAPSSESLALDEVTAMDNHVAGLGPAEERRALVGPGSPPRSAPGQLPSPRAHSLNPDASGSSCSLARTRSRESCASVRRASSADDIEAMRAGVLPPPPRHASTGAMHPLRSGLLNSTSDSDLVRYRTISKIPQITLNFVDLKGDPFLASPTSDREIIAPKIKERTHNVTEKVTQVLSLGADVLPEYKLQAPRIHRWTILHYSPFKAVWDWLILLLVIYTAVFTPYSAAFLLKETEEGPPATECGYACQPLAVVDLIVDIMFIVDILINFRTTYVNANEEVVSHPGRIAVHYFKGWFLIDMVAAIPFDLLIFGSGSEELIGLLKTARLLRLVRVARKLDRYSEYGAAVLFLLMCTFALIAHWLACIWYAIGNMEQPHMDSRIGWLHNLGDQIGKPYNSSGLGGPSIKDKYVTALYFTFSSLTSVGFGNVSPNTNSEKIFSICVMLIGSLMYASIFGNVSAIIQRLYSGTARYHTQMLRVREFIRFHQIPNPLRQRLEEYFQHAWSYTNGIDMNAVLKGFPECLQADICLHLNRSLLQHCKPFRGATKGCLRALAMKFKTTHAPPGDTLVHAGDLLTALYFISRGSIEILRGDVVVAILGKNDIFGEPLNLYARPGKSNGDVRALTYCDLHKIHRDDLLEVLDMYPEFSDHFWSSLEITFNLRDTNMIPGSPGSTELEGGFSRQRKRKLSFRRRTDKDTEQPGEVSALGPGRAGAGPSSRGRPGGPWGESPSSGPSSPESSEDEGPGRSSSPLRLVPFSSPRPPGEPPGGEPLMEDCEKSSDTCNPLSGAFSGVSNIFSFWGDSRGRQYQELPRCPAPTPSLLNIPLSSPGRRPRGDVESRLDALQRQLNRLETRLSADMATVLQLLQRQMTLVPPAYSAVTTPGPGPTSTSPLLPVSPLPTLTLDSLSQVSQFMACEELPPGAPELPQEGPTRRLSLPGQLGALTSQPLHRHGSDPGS
CYP2C19, sequence (P33261 whole entry): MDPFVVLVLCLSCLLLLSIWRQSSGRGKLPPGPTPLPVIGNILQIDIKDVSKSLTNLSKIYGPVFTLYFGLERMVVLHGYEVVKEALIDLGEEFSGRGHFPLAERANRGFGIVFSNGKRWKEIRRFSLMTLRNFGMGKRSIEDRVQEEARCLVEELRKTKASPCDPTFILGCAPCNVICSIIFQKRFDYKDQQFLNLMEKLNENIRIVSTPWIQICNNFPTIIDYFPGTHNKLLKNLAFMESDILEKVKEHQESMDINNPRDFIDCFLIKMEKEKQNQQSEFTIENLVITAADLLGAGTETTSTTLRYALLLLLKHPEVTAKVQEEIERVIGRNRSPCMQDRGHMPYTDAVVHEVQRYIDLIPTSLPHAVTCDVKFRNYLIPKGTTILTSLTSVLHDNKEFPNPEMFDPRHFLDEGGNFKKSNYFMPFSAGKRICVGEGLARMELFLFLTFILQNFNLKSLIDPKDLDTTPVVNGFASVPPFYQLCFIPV
CYP3A4, sequence (P08684 whole entry): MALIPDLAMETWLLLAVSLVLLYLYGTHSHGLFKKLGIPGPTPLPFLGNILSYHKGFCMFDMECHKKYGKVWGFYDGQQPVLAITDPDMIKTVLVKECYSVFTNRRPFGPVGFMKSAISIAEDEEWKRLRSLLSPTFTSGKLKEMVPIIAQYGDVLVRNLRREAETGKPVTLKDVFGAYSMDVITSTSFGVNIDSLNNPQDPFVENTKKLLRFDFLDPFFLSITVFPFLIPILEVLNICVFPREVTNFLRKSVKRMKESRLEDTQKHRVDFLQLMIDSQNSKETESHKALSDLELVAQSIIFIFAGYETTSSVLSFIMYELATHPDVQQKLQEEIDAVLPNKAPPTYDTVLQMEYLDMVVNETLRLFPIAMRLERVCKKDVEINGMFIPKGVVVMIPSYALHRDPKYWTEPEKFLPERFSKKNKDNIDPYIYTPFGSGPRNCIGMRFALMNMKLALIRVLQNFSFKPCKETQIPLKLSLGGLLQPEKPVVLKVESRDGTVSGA
hERG ion channel, sequence (Q12809 whole entry): as the sequence (Q12809 whole entry) above

Row | Compound | Percent cleavage at 72 h (PLE) [%] | eosinophil counts in the BALF [1] | reversal of mechano-allodynia (figure legend) [2] | IC50 (hP2Y14R; [14]) [µM] | IC50 (mP2Y14R) [µM] | IC50 (CYP1A2) [µM] | IC50 (CYP2C19) [µM] | IC50 (CYP2D6) [µM] | IC50 (CYP3A4) [µM] | Microsomal stability (t1/2, min) [3] [min] | Microsomal stability (t1/2, min) [4] [min] | IC50 (hERG) [µM] | t1/2 (h), administration mode [5, 15] [h] | t1/2 (h), administration mode [5, 16] [h] | Mouse, % bound (±SD) [6] [%] | Rat, % bound (±SD) [7] [%] | Human, % bound (±SD) [8] [%] | IC50 (CYP2C9) [µM] | Plasma stability (% remaining at 120 min) (Plasma stability, rat) [%] | Plasma stability (% remaining at 120 min) (Plasma stability, mouse) [%] | other results
1 | CN(C)C(=O)COC(=O)c1cc(-c2ccc(-c3cc(CO)on3)cc2)c2ccc(-c3ccc(C(F)(F)F)cc3)cc2c1 [Compound 37b, 2-(Dimethylamino)-2-oxoethyl 4-(4-(5-(hydroxymethyl)isoxazol-3-yl)phenyl)-7-(4-(trifluoromethyl)phenyl)-2-naphthoate] | 32.6 ± 0.9 | significantly reduced eosinophils to a greater extent than the parent antagonists |  |  |  |  |  |  |  |  |  |  |  |  |  |  |  |  |  |  | 
2 | CN(C)C(=O)COC(=O)c1cc(-c2ccc(C3CCNCC3)cc2)cc(-n2cc(-c3ccc(C(F)(F)F)cc3)nn2)c1 [Compound 37a, 2-(Dimethylamino)-2-oxoethyl 4′-(piperidin-4-yl)-5-(4-(4-(trifluoromethyl)phenyl)-1H-1,2,3-triazol-1-yl)-[1,1′-biphenyl]-3-carboxylate] |  |  |  |  |  |  |  |  |  |  |  |  |  |  |  |  |  |  |  |  | t1/2 (min, mean ± SEM) for esterase cleavage (PLE; pH 7.3, aqueous medium, PLE): most rapidly cleaved; lymphocyte count in the BALF ([1]; i.p.): trended higher than in vehicle control
3 | NCCCNC(=O)c1ccc(-c2cc(C(=O)O)cc(-n3cc(-c4ccc(C(F)(F)F)cc4)nn3)c2)cc1 [Compound 14, 4′-((3-Aminopropyl)carbamoyl)-5-(4-(4-(trifluoromethyl)phenyl)-1H-1,2,3-triazol-1-yl)-[1,1′-biphenyl]-3-carboxylic acid] |  |  | reversal of established mechano-allodynia |  |  |  |  |  |  |  |  |  |  |  |  |  |  |  |  |  | IC50 (hP2Y14R; Table 1, fluorescent antagonist 2, hP2Y14R-CHO cells, 3-4 determinations, read-out: IC50, hP2Y14R (μM, mean ± SEM)): 0.588 ± 0.043 µM
4 | O=C(O)c1cc(-c2ccc([C@H]3C[C@H]4C[C@@H]3CN4)cc2)c2ccc(-c3ccc(C(F)(F)F)cc3)cc2c1 [Compound 114, 4-(4-((1S,4S,5S)-2-Azabicyclo[2.2.1]heptan-5-yl)phenyl)-7-(4-(trifluoromethyl)phenyl)-2-naphthoic acid] |  |  | reversed the established mechano-allodynia | 0.00311 ± 0.00062 | 0.0339 ± 0.0046 | > 30 | > 30 | > 30 | > 30 | 91.0 | 243 | > 30 | 8.94 | 7.24 | 99.76 ± 0.03 | 99.79 ± 0.02 | 87.98 ± 10.29 | > 30 | 82.8 | 100 | Microsomal stability (t1/2, min) ([9]; Table 7): 280 (h) min; Solubility (ug/mL) pH 4 ([10]; pH 4): 1.22 ± 0.05 ug/mL; Solubility (ug/mL) pH 7.4 ([10]; pH 7.4): 0.77 ± 0.21 ug/mL; chromatographic logD [11]: 1.92 ± 0.09; Simulated gastric fluid (% remaining at 120 min) ([12]; aqueous acid stability determined by NMR): 100^e %; Simulated intestinal fluid (% remaining at 120 min) [13]: 99.1%; IC50 (hERG ion channel): > 30 µM; side effects [2]: No obvious side effects were observed
5 | CC(=O)N1CCC(c2ccc(-c3cc(C(=O)OCC(=O)N(C)C)cc4cc(-c5ccc(C(F)(F)F)cc5)ccc34)cc2)CC1 [Compound 37c, 2-(Dimethylamino)-2-oxoethyl 4-(4-(1-acetylpiperidin-4-yl)phenyl)-7-(4-(trifluoromethyl)phenyl)-2-naphthoate] | 27.2 ± 0.3 | significantly reduced eosinophils to a greater extent than the parent antagonists |  |  |  |  |  |  |  |  |  |  |  |  |  |  |  |  |  |  | 
6 | O=C(O)c1cc(-c2ccc([C@@H]3C[C@@H]4C[C@H]3NC4=O)cc2)c2ccc(-c3ccc(C(F)(F)F)cc3)cc2c1 [Compound 121, 4-(4-((1R,4R,6S)-3-Oxo-2-azabicyclo[2.2.1]heptan-6-yl)phenyl)-7-(4-(trifluoromethyl)phenyl)-2-naphthoic acid] |  |  |  | 0.0373 ± 0.006 | 0.0429 ± 0.007 | > 30 | > 30 | > 30 | > 30 | 89.4 | > 1000 | > 30 | 4.59 | 2.11 | 99.74 ± 0.04 | 96.18 ± 0.32 | 98.89 ± 0.50 | > 30 | 74.7 | 74.1 | half-life ([9]; liver microsomes): 14.2 h; Simulated gastric fluid (% remaining at 120 min) [12]: 59.3%; Simulated intestinal fluid (% remaining at 120 min) [13]: 100%

From patent US20240150290A1, “HETEROCYCLIC P2Y14 RECEPTOR ANTAGONISTS” (priority 2021, published 2024)
